Like-named read-outs stand apart in the source and are kept apart here.
Tests used:
[1] = test system: pain reaction provoked in the rat through bending of an inflamed ankle joint; assay: Analgesic effect, pain reaction provoked through bending of an inflamed ankle joint (AgNO3 inflammation); settings: for ED25: Rattus norvegicus, po, read-out: Analgesic effect ED25 (= dose which in 25% of the animals completely suppresses the pain reaction); for Therap. Quotient LD50/ED25: Table 5, LD50 mouse i.p. / ED25 rat oral, analgesic
Procedure: The influence of the compounds which were to be tested on the pain reaction provoked in the rat through bending of an inflamed tarsal joint (AgNO3 inflammation) was determined as follows:
In imitation of HOFFMEISTER et al [Arzneim.Forsch. […] The animals are kept at 24° C. and receive as food Altromin®R and water ad libitum. […] All the positively-reacting animals are concentrated in groups of 10 animals. The compounds which are to be tested are administered orally in a liquid volume of 20 ml/kg 1 hour before the AgNO3 application; the untreated control animals receive the corresponding amount of tap water.
Within 5 hours after administration of the substance the number of reacting animals is ascertained at hourly intervals.
As measure for the analgesic effect there serves the maximum % proportion of the protected animals within 5 hours after administration of the substance [referred to the number of reacting animals of the control group (=100%)]

[2] = in vivo; settings: mouse, ip
[3] = test system: carrageenin oedema of rat hind paw; assay: Inhibition of carrageenin oedema of rat hind paw; settings: for ED40 / inhibition at 100 mg/kg: Rattus norvegicus; for ED40: po, read-out: Inhibition of carrageenin oedema of rat hind paw by 40% (=ED40) after single oral dose; for Therapeutic Quotient LD50/ED40: Table 2, LD50 mouse i.p. / ED40 rat oral; for inhibition at 100 mg/kg: read-out: oedema inhibition
Procedure: The influence of the compounds which were to be tested on carrageenin oedema of rat hind paw was determined as follows:
Female Sprague-Dawley rats (groups of, in each instance, 10 animals; weight of each animal 140-170 g) from which food (Altromin®R, water ad libitum) is withheld about 16 hours beforehand are each injected subplantarly in the right hind paw with 0.05 ml of a 1% strength carrageenin suspension 1 hour after oral administration of the compounds which are to be tested. The rats are kept at 24° C.
The determination of the paw volume of each rat (in each case, 2-3 individual measurements) is effected plethysmometrically before and 2 and 4 hours after oedema provocation.
As measure for the antiphlogistic effect there serves the average percentage oedema inhibition (i.e. the average from the measured values obtained 3 and 5 hours after administration of the substance).
The determination of the paw volume is effected plethysmometrically. Measuring principle: the liquid volume displaced by the rat paw is registered digitally via an electromechanical pressure converter (Statham P 23 V, 0-200 mm Hg).
The stated doses of the medicaments tested were administered in a liquid volume of 20 ml/kg.

[4] = test system: granulation tissue formation in the rat; settings: Table 3; for Therapeutic Quotient LD50/ED20: LD50 mouse i.p. / ED20 rat oral
Procedure: Test procedure for the investigation of the influence of the compounds which are to be tested on granulation tissue formation after cotton-wool implantation in the rat (so-called cotton pellet method):
Closure of the skin cut is effected by means of clips.
On seven consecutive days the compounds which are to be tested (as sodium salt in aqueous solution) or the corresponding amount (5 ml/kg/day) of tap water (=control group) are administered orally daily.
On the eighth day the animals are killed, the cotton-wool granulomata are cautiously freed without cutting, i.e. preserving the fibrous capsule, dried (15 hours at 120° C.) and weighed. By deducting the weight component of the cotton-wool pellets the amount of newly formed granulation tissue is obtained.
As measure for the anti-proliferative effect of a compound there serves the percentage lessening of the average granuloma dry weight of a treated group (=16 granulomata) compared to the control group (=100%).

[5] = test system: adjuvant arthritis in the rat (Mycobacterium butyricum); assay: Anti-arthritic effect (adjuvant arthritis); type: in vivo, rat (male Sprague-Dawley); settings: Table 4, LD50 mouse i.p. / ED25 rat oral
Procedure: In imitation of the method described by NEWBOULD and PERRINE et al. [NEWBOULD, B. B.; Brit. […] Pharmacodyn. […] Antiphlogistic agents inhibit this swelling reaction.
Male Sprague-Dawley rats (150-190 g) are each injected intradermally into the tail root on day zero with 0.1 ml/animal of a 0.5% strength Myobact. butyrum/paraffin oil suspension. […] On the 17th day after administration of adjuvant, all positively-reacting animals (paw volume increase at least 30%) are selected and concentrated in groups of 10 animals with equal paw volume distribution.
The compounds to be tested are now administered on the following 5 days, that is to say from the 17th to the 21st day after administration of adjuvant, once daily orally in 10 ml/kg of liquid.
As measure for the anti-arthritic effect there serves the decrease of the paw swelling on the 21st day after the administration of adjuvant, referred in each case to the paw swelling of the control group (=100%); the paw volume is determined plethysmometrically.

[6] = test system: yeast fever of the rat; assay: Antipyretic effect, yeast fever of the rat; type: in vivo, rat (female Sprague-Dawley); settings: read-out: Antipyretic effect ED0.75 (dose which lowers the yeast fever of the rat by 0.75° C.)
Procedure: The antipyretic effect is determined from the influence of the compounds to be tested on the yeast fever of the rat.
In female Sprague-Dawley rats (in each series of experiments, 30 rats in groups of 5 animals; animal weight 170-200 g) a hyperthermia is produced through subcutaneous injection (neck) of 20 ml/kg of a 20% strength aqueous brewer's yeast suspension (brewers' yeast "Heliosan"/Hefereformwerk Radolfzell). 24 hours after the yeast injection, the body temperature is measured rectally at hourly intervals.
After a preliminary measurement the compounds which are to be tested are administered to the animals orally in a liquid volume of 5 ml/kg; a control group receives the corresponding amount of tap water. Food (Altromin®R, water ad libitum) was withheld from the rats 18 hours beforehand. The rats are kept at about 23° C.
As measure for the antipyretic effect there serves the maximum lowering of temperature (with reference to the temperature of the preliminary measurement, i.e. immediately before administration of the substance) in the course of 4 hours. The body temperature is measured with a Iastomed H (Braun electronic).

[7] = test system: mouse; settings: for Lethal effect LD50 after single intraperitoneal administration to the mouse: Table 3, single i.p.; for LD50 after a single administration mouse: Table 4, single i.p.; for Toxicity after single intraperitoneal administration to the mouse LD50: Table 5, single i.p.; for Toxicity after single intraperitoneal administration in the mouse LD50: Table 6, single i.p.

| Compound | ED25 [1] | Therap. Quotient LD50/ED25 [1] | LD50 [2] | ED40 [3] | Therapeutic Quotient LD50/ED40 [3] | Therapeutic Quotient LD50/ED20 [4] | Inhibition of granulation tissue formation after subcutaneous cotton-wool implantation by 20% (=ED20) in the rat after 7-day oral administration [4] | Therapeutic Quotient LD50/ED25 [5] | ED (0.75 degC) ([6]; Table 6, rat, oral) | Lethal effect LD50 after single intraperitoneal administration to the mouse [7] | LD50 after a single administration mouse [7] | Toxicity after single intraperitoneal administration to the mouse LD50 [7] | Toxicity after single intraperitoneal administration in the mouse LD50 [7] | ED (0.75 degC) ([6]; po) | inhibition at 100 mg/kg [3] |
| --- | --- | --- | --- | --- | --- | --- | --- | --- | --- | --- | --- | --- | --- | --- | --- |
| CC(C(=O)[O-])c1cc(Cl)c(-n2cccn2)cc1Cl.[Na+] (stereo not drawn) | 2.5 mg/kg | 420 | 1050 mg/kg |  |  |  |  |  |  |  |  |  |  |  |  |
| CC(C(=O)O)c1ccc(-n2cc(Cl)cn2)c(Cl)c1 (stereo not drawn) [I, 2-[3-chloro-4-(4-chloropyrazol-1-yl)phenyl]-propionic acid] | 0.4 mg/kg | 813 | 325 mg/kg | 5 mg/kg | 65 | 108.3 | 3 mg/kg/die | 1625 | 3.5 mg/kg | 325 mg/kg i.p. | 325 mg/kg i.p. | 325 mg/kg i.p. | 325 mg/kg i.p. |  |  |
| O=C(O)Cc1ccc(-n2cc(Cl)cn2)cc1 [II, 4-(4-chloropyrazol-1-yl)phenylacetic acid] |  |  | 460 mg/kg | 8 mg/kg | 58 |  |  |  |  |  |  |  |  |  |  |
| O=C(O)Cc1ccc(-n2cc(Br)cn2)cc1 [III, 4-(4-bromopyrazol-1-yl)phenylacetic acid] | 1.2 mg/kg | 458 | 550 mg/kg | 4 to 5 mg/kg | 122 |  |  |  | 20 mg/kg |  |  | 550 mg/kg i.p. | 550 mg/kg i.p. |  |  |
| O=C(O)Cc1ccc(-n2cc(Cl)cn2)c(Cl)c1 [IV, 3-chloro-4-(4-chloropyrazol-1-yl)phenylacetic acid] | 2.5 mg/kg | 184 | 460 mg/kg | 2 mg/kg | 230 | 23.0 | 20 mg/kg/die | 657 |  | 460 mg/kg i.p. | 460 mg/kg i.p. | 460 mg/kg i.p. |  |  |  |
| CCCCC1C(=O)N(c2ccccc2)N(c2ccccc2)C1=O [IX, phenylbutazone, reference compound] | 2 mg/kg |  |  | 40 mg/kg |  |  | 100 mg/kg/die |  | 15 mg/kg |  |  |  |  |  |  |
| CC(C(=O)O)c1ccc(-n2cc(Br)cn2)c(Cl)c1 (stereo not drawn) [V, 2-[3-chloro-4-(4-bromopyrazol-1-yl)phenyl] acid] | 0.8 mg/kg | 406 | 325 mg/kg | 2 mg/kg | 163 | ~ 32.5 | ~ 10 mg/kg/die | 1625 | 5 mg/kg |  |  |  |  |  |  |
| CC(C(=O)O)c1cc(Cl)c(-n2cc(Br)cn2)cc1Cl (stereo not drawn) [VII, 2-[2,5-dichloro-4-(4-bromopyrazol-1-yl)phenyl]propionic acid] | 1.2 mg/kg | 238 | 285 mg/kg |  |  |  |  |  |  |  |  |  |  |  |  |
| O=C(O)Cc1ccc(-n2cccn2)cc1 [VIII, 4-(pyrazol-1-yl)phenylacetic acid] |  |  | 1200 mg/kg | 8 mg/kg | 150 |  |  |  | 32 mg/kg |  |  |  | 1200 mg/kg i.p. |  |  |
| COc1ccc2c(c1)c(CC(=O)O)c(C)n2C(=O)c1ccc(Cl)cc1 [X, indomethacin, reference compound] | 0.3 mg/kg | 150 | 45 mg/kg | 4 mg/kg | 11 | 12.8 | 3-5 mg/kg/die | 450 |  | 45 mg/kg i.p. | 45 mg/kg i.p. | 45 mg/kg i.p. | 45 mg/kg i.p. | 2.5 mg/kg |  |
| Cn1nc(-c2ccc(CC(=O)O)cc2)cc1-c1ccccc1 [XI, 4-(1-methyl-5-phenylpyrazol-3-yl)phenylacetic acid, reference compound] |  |  | 430 mg/kg | > 100 mg/kg | < 4 |  |  |  |  |  |  |  |  |  | 25% |
| O=C(O)Cc1ccc(-c2cc(-c3ccccc3)n(-c3ccccc3)n2)cc1 [XII, 4-(1,5-diphenyl-pyrazol-3-yl)phenylacetic acid, reference compound] |  |  | 200 mg/kg | 63 mg/kg | 3 |  |  |  |  |  |  |  |  |  |  |
| CN1N=C(c2ccc(CC(=O)O)cc2)CC1c1ccccc1 (stereo not drawn) [XIII, 4-(1-methyl-5-phenyl-2-pyrazoline-3-yl)phenylacetic acid, reference compound] |  |  |  | > 100 mg/kg |  |  |  |  |  |  |  |  |  |  | 25% |

Reference: patent US4239901A, “Pyrazol-1-ylphenylacetic acids” (Byk Gulden Lomberg Chemische Fabrik GmbH, priority 1976, dated 1980)
